Drawing on PubChem BioAssay (NCI), this text covers GI50 and TGI for nine compounds.

Some test systems named below: 786-0 renal; HS 578T breast; HT29 colon; K-562 leukemia; KM12 colon; NCI-H23 lung; OVCAR-8 ovarian; SW-620 colon.
What all share (assay): DTP human tumour cell line panel, 48 h

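Cultured in 96-well plates, cells were exposed to test compound for 48 hours across five concentrations. At the GI50, growth is halved. The concentration for full growth arrest is given as TGI.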 Some results are limits rather than exact numbers.

In general, GI50 refers to the concentration that inhibits growth by half. As a reminder, the TGI is the concentration at which net growth stops. Higher therefore signals lower sensitivity of the cells. For `CC1(C)N=C(N)N=C(N)N1c1cccc(OCCOc2cccc([N+](=O)[O-])c2)c1`, the GI50 in the test on 786-0 renal is 37 µM; in the test on HS 578T breast, 33.5 µM; with HT29 colon, 0.583 µM; in the test on K-562 leukemia, 2.1 µM; with KM12 colon, 1.37 µM; in the test with NCI-H23 lung, 1.73 µM. The results for the GI50 with OVCAR-8 ovarian and in the test with SW-620 colon were 38.6 µM and 1.93 µM, respectively. Also, the TGI in the test with 786-0 renal, in the test with HS 578T breast, in the test on HT29 colon, in the test with K-562 leukemia, in the test with KM12 colon and in the test with NCI-H23 lung was over 100 µM each time. The TGI in the test with OVCAR-8 ovarian and in the test on SW-620 colon was over 100 µM throughout.
On to `C=C(C)[C@@H]1CC[C@]2(C)[C@H](CC[C@@H]3[C@@H]([C@@](C)(O)CCC=C(C)C)CC[C@]32C)[C@@]1(C)CCC(=O)O`, for which the GI50 with 786-0 renal is 18.7 µM; in the test on HS 578T breast it was 24 µM; in the test with HT29 colon it was 24.1 µM; with K-562 leukemia, 18.5 µM; with KM12 colon, 16.3 µM; in the test on NCI-H23 lung, 18.1 µM. Further, the results for the GI50 with OVCAR-8 ovarian and in the test on SW-620 colon were 19 µM and 28.5 µM, respectively. Besides, the TGI in the test with 786-0 renal is 36.7 µM; with HS 578T breast it was 86.9 µM; in the test on HT29 colon, over 100 µM; in the test on K-562 leukemia it was 90.5 µM; in the test with KM12 colon it was 32.4 µM; in the test on NCI-H23 lung it was 35.6 µM. Besides, the values for the TGI in the test on OVCAR-8 ovarian and in the test on SW-620 colon were 43 µM and over 100 µM, respectively.
With `COc1cc(/C=C2\CCC/C(=C\c3ccc(OCC4CO4)c(OC)c3)C2=O)ccc1OCC1CO1` (stereo unspecified), the GI50 in the test with 786-0 renal was 2.04 µM; in the test on HS 578T breast, 4.22 µM; in the test with HT29 colon, 2.25 µM; with K-562 leukemia, 3.46 µM; in the test with KM12 colon it was 1.88 µM; in the test on NCI-H23 lung, 2.8 µM. In addition, the figures for the GI50 with OVCAR-8 ovarian and in the test on SW-620 colon were 2.1 µM and 2.46 µM, respectively. The TGI in the test with 786-0 renal was 3.85 µM; with HS 578T breast, over 100 µM; with HT29 colon, 4.62 µM; in the test on K-562 leukemia, over 100 µM; in the test on KM12 colon, 5.13 µM; in the test with NCI-H23 lung, 9.71 µM. In addition, the TGI worked out at 9.11 µM with OVCAR-8 ovarian and 5.09 µM in the test with SW-620 colon.
As to `C=CCn1c(SCC(=O)Nc2ccc(C(=O)/C=C/c3cc(OC)c(OC)c(OC)c3)cc2)nnc1-c1ccc(OC)cc1`, the GI50 was 0.583 µM in the test with 786-0 renal; 2.12 µM in the test on HS 578T breast; 0.237 µM in the test with HT29 colon; 0.363 µM in the test on K-562 leukemia; 0.315 µM with KM12 colon; 0.67 µM in the test on NCI-H23 lung. The GI50 with OVCAR-8 ovarian was 0.755 µM; with SW-620 colon it was 0.397 µM. Also, the TGI was 2.61 µM with 786-0 renal; 56.7 µM with HS 578T breast; 0.532 µM in the test with HT29 colon; over 100 µM in the test on K-562 leukemia; 1.5 µM in the test with KM12 colon; 2.66 µM in the test with NCI-H23 lung. The TGI with OVCAR-8 ovarian was 10 µM; in the test with SW-620 colon, over 47.4 µM.
Consider `C=C1C(=O)OC2C1CC(OC(C)=O)/C(C)=C/CCC1(C)OC21` (stereo unspecified), for which the TGI with 786-0 renal, in the test on HS 578T breast, with HT29 colon, in the test with K-562 leukemia, with KM12 colon and with NCI-H23 lung was over 100 µM in each case. In addition, the TGI in the test on OVCAR-8 ovarian and with SW-620 colon was over 100 µM each time.
Take `CCOC(=O)C1=C(N)Oc2c(sc3c(C)cccc23)C1c1ccc(F)cc1` (stereo unspecified): the GI50 was 1.25 µM in the test on 786-0 renal; 0.472 µM with HS 578T breast; 0.938 µM in the test with HT29 colon; 0.375 µM in the test on K-562 leukemia; 0.464 µM in the test with KM12 colon; 0.808 µM in the test with NCI-H23 lung. Besides, the figures for the GI50 with OVCAR-8 ovarian and in the test on SW-620 colon were 0.581 µM and 0.453 µM, respectively. For the same compound, the TGI in the test on 786-0 renal was 17.9 µM; in the test on HS 578T breast, 7.17 µM; in the test on HT29 colon, 12.8 µM; in the test with K-562 leukemia it was over 42.7 µM; with KM12 colon, 13.6 µM; with NCI-H23 lung it was 14.3 µM. Further, the TGI in the test with OVCAR-8 ovarian came out at 18.1 µM; with SW-620 colon, 15.9 µM.
Consider `O=C(NNc1cnccn1)c1nc2cc(F)ccc2n2cccc12`, for which the GI50 was 0.572 µM with 786-0 renal; 2.83 µM in the test with HS 578T breast; 0.649 µM with HT29 colon; 0.387 µM with K-562 leukemia; 0.509 µM with KM12 colon; 0.765 µM with NCI-H23 lung. The GI50 with OVCAR-8 ovarian is 0.429 µM; in the test on SW-620 colon, 0.397 µM. The TGI in the test with 786-0 renal, in the test on HS 578T breast, with HT29 colon, in the test on K-562 leukemia, in the test with KM12 colon and in the test with NCI-H23 lung was over 100 µM throughout. The TGI in the test on OVCAR-8 ovarian and with SW-620 colon was over 100 µM each time.
As for `Cn1cc(S(=O)(=O)N2CCC3=Cc4c(cnn4-c4ccc(F)cc4)C[C@]3(C(=O)c3cc(C(F)(F)F)ccn3)C2)cn1`, the GI50 in the test with 786-0 renal is over 100 µM; with HS 578T breast it was 37.8 µM; in the test with HT29 colon, 89.7 µM; with K-562 leukemia it was over 100 µM; with KM12 colon, 75.8 µM; with NCI-H23 lung, over 100 µM. The GI50 with OVCAR-8 ovarian and in the test with SW-620 colon was over 100 µM throughout. For the same compound, the TGI in the test on 786-0 renal, in the test on HS 578T breast, in the test on HT29 colon, in the test with K-562 leukemia, in the test with KM12 colon and with NCI-H23 lung was over 100 µM in each case. Moreover, the TGI in the test on OVCAR-8 ovarian and in the test on SW-620 colon was over 100 µM each time.
Regarding `COc1ccc(-c2noc(N)c2-c2cc(OC)c3c(c2)OCO3)cc1`, the GI50 in the test on 786-0 renal is 8.36 µM; with HS 578T breast, 2.61 µM; with HT29 colon it was 1.39 µM; with K-562 leukemia, 0.405 µM; in the test on KM12 colon, 1.97 µM; in the test with NCI-H23 lung, 3.17 µM. Also, the GI50 in the test with OVCAR-8 ovarian is 3.98 µM; in the test with SW-620 colon, 0.677 µM. Moreover, the TGI is over 100 µM in the test on 786-0 renal; 24.4 µM with HS 578T breast; over 35.5 µM in the test with HT29 colon; over 100 µM in the test with K-562 leukemia; over 100 µM in the test on KM12 colon; over 83.1 µM in the test with NCI-H23 lung. In addition, the TGI in the test with OVCAR-8 ovarian and with SW-620 colon was over 100 µM each time.
